# Reference: ChEMBL document CHEMBL3044963, “Synthesis and in vitro anticancer activity of novel thiazacridine derivatives” (Med Chem Res, 2013)
# How the values were obtained:
# [1] = system: MDA-MB-435; experiment: Anticancer activity against Homo sapiens (human) MDA-MB-435 cells assessed as inhibition of cell survival after 72 hr by MTT assay; format: functional, cell-based; settings: MDA-MB-435, 72 h
# [2] = system: HCT-8; experiment: Anticancer activity against Homo sapiens (human) HCT8 cells assessed as inhibition of cell survival after 72 hr by MTT assay; format: functional, cell-based; settings: HCT-8, 72 h
# [3] = system: SF-295; experiment: Anticancer activity against Homo sapiens (human) SF295 cells assessed as inhibition of cell survival after 72 hr by MTT assay; format: functional, cell-based; settings: SF-295, 72 h
# [4] = system: HL-60; experiment: Anticancer activity against Homo sapiens (human) HL60 cells assessed as inhibition of cell survival after 72 hr by MTT assay; format: functional, cell-based; settings: HL-60, 72 h
# [5] = system: MDA-MB-435; experiment: Anticancer activity against Homo sapiens (human) MDA-MB-435 cells assessed as growth inhibition at 25 ug/ml after 72 hr by MTT assay; format: functional; settings: MDA-MB-435, 72 h, read-out: GI
# [6] = system: HCT-8; experiment: Anticancer activity against Homo sapiens (human) HCT8 cells assessed as growth inhibition at 25 ug/ml after 72 hr by MTT assay; format: functional; settings: HCT-8, 72 h, read-out: GI
# [7] = system: SF-295; experiment: Anticancer activity against Homo sapiens (human) SF295 cells assessed as growth inhibition at 25 ug/ml after 72 hr by MTT assay; format: functional; settings: SF-295, 72 h, read-out: GI
# [8] = system: MDA-MB-435; experiment: Anticancer activity against Homo sapiens (human) MDA-MB-435 cells assessed as growth inhibition at 0.3 ug/ml after 72 hr by MTT assay; format: functional; settings: MDA-MB-435, 72 h, read-out: GI
# [9] = system: HCT-8; experiment: Anticancer activity against Homo sapiens (human) HCT8 cells assessed as growth inhibition at 0.3 ug/ml after 72 hr by MTT assay; format: functional; settings: HCT-8, 72 h, read-out: GI
# [10] = system: SF-295; experiment: Anticancer activity against Homo sapiens (human) SF295 cells assessed as growth inhibition at 0.3 ug/ml after 72 hr by MTT assay; format: functional; settings: SF-295, 72 h, read-out: GI
SMILES,IC50 [1],IC50 [2],IC50 [3],IC50 [4],inhibition of growth at 25 µg/mL [5],inhibition of growth at 25 µg/mL [6],inhibition of growth at 25 µg/mL [7],inhibition of growth at 0.3 µg/mL [8],inhibition of growth at 0.3 µg/mL [9],inhibition of growth at 0.3 µg/mL [10]
O=C1S/C(=C\c2c3ccccc3nc3ccccc23)C(=O)N1Cc1c2ccccc2nc2ccccc12,7.01 µg/mL,4.45 µg/mL,4.44 µg/mL,> 25 µg/mL,95.9%,92.4%,76.7%,–,–,–
O=C1S/C(=C\c2ccc(Cl)cc2)C(=O)N1Cc1c2ccccc2nc2ccccc12,> 25 µg/mL,> 25 µg/mL,> 25 µg/mL,> 25 µg/mL,0%,37.8%,31.3%,–,–,–
Cc1ccc(/C=C2\SC(=O)N(Cc3c4ccccc4nc4ccccc34)C2=O)cc1,> 25 µg/mL,> 25 µg/mL,> 25 µg/mL,> 25 µg/mL,31.2%,51.3%,29.9%,–,–,–
COc1ccc(/C=C2\SC(=O)N(Cc3c4ccccc4nc4ccccc34)C2=O)cc1,> 25 µg/mL,19.3 µg/mL,> 25 µg/mL,> 25 µg/mL,84.2%,86.7%,59.5%,–,–,–
COc1ccc(/C=C2\SC(=O)N(Cc3c4ccccc4nc4ccccc34)C2=O)cc1Br,> 25 µg/mL,> 25 µg/mL,> 25 µg/mL,> 25 µg/mL,53%,72.5%,48%,–,–,–
CS(=O)(=O)c1ccc(/C=C2\SC(=O)N(Cc3c4ccccc4nc4ccccc34)C2=O)cc1,> 25 µg/mL,> 25 µg/mL,> 25 µg/mL,> 25 µg/mL,12.9%,64.3%,44.3%,–,–,–
O=C1S/C(=C\c2ccc(Br)cc2)C(=O)N1Cc1c2ccccc2nc2ccccc12,> 25 µg/mL,20.6 µg/mL,> 25 µg/mL,19.5 µg/mL,85.3%,96.6%,62.2%,–,–,–
O=C1CSC(=O)N1Cc1c2ccccc2nc2ccccc12,> 25 µg/mL,> 25 µg/mL,> 25 µg/mL,> 25 µg/mL,0%,42%,32.8%,–,–,–
COc1cccc2c1C(=O)c1c(O)c3c(c(O)c1C2=O)C[C@@](O)(C(=O)CO)C[C@@H]3O[C@H]1C[C@H](N)[C@H](O)[C@H](C)O1 [DOXORUBICIN],0.24 µg/mL,–,0.48 µg/mL,–,–,–,–,93.6%,95.2%,91.1%
